The values below are quoted from earlier work in article PMC9667546, “Selective Inhibition of Bruton’s Tyrosine Kinase by a Designed Covalent Ligand Leads to Potent Therapeutic Efficacy in Blood Cancers Relative to Clinically Used Inhibitors” (ACS Pharmacology & Translational Science, 2022).

The target in one data set is T1, EGFR (Homo sapiens, UniProt P00533).
T1 construct: host or cells: HEK296T (so in the source)
The following applies: Table S3 heat map; ref SI 1-19; cited from earlier work.

The target in a further data set is T2, JAK3 (Homo sapiens, UniProt P52333).
T2 construct: host or cells: HEK296T (so in the source)
The following applies: Table S3 heat map; ref SI 1-19; cited from earlier work.

For the next data set, the target named is T3, TEC (Homo sapiens, UniProt P42680).
T3 construct: host or cells: HEK296T (so in the source)
T3 sequence (P42680 1-631): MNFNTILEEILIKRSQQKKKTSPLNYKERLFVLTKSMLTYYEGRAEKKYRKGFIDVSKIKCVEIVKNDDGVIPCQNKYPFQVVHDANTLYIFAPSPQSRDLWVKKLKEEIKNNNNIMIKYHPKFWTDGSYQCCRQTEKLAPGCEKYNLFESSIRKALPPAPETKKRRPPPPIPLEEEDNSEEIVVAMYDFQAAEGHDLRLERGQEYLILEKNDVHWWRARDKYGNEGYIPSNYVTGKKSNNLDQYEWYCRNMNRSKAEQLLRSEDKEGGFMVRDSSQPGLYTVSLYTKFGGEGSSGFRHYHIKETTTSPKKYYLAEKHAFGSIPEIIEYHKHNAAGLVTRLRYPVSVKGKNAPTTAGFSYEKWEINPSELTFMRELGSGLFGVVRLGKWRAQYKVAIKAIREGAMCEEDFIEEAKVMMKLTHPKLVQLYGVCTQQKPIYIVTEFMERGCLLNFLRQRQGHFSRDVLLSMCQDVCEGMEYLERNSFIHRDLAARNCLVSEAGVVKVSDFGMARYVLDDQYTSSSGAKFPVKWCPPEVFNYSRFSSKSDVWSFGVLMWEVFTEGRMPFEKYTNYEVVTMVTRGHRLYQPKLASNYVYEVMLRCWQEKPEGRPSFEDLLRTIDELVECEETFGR
The following applies: Table S3 heat map; ref SI 1-19; cited from earlier work.

In another data set the target is BTK (Homo sapiens, UniProt Q06187). The arrangement: purchased Promega Corporation V2941. The note with it: Table S3 heat map; ref SI 1-19; read-out: IC50, BTK; cited from earlier work.
In a further data set the target is T4, TXK (Homo sapiens, UniProt P42681).
T4 construct: host or cells: HEK296T (so in the source)
T4 sequence (P42681 1-527): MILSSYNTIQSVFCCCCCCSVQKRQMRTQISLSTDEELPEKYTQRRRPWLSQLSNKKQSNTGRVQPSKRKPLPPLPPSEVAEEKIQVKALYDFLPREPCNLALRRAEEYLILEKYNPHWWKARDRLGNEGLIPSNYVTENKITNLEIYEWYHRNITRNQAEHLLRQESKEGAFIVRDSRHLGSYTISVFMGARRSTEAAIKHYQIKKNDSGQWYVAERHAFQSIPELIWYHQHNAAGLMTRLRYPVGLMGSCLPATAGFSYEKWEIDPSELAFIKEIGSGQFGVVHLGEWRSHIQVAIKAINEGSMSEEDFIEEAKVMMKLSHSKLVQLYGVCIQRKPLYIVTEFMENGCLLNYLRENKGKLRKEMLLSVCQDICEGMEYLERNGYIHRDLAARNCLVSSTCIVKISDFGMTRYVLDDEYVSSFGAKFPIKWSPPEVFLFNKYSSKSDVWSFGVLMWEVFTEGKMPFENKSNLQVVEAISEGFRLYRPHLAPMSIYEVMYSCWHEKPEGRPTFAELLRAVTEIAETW
The following applies: Table S3 heat map; ref SI 1-19; cited from earlier work.

Another data set deals with T5, ITK (Homo sapiens, UniProt Q08881).
T5 construct: host or cells: HEK296T (so in the source)
T5 sequence (Q08881 1-620): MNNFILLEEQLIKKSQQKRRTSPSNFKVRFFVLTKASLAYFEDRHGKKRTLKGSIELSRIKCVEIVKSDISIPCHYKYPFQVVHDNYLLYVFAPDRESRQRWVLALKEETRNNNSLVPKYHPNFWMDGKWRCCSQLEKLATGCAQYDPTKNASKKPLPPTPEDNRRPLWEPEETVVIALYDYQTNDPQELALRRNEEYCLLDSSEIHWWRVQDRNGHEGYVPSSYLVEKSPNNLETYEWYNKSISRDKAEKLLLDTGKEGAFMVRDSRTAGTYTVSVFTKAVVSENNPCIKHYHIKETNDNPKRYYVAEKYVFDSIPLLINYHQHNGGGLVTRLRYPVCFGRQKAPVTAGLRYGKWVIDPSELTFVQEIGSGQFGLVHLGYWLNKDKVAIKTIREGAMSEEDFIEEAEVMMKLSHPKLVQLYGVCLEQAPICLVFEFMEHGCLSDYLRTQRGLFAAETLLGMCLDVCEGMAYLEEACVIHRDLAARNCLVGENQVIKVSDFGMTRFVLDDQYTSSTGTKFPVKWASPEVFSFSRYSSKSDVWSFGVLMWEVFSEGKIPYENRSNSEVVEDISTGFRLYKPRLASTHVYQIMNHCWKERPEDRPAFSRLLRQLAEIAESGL
The note with it: Table S3 heat map; ref SI 1-19; cited from earlier work.

The test system of a further data set is Her2. The note with it: read-out: IC50, Her2; Table S3 heat map; ref SI 1-19; cited from earlier work.

T2 sequence (P52333 whole entry): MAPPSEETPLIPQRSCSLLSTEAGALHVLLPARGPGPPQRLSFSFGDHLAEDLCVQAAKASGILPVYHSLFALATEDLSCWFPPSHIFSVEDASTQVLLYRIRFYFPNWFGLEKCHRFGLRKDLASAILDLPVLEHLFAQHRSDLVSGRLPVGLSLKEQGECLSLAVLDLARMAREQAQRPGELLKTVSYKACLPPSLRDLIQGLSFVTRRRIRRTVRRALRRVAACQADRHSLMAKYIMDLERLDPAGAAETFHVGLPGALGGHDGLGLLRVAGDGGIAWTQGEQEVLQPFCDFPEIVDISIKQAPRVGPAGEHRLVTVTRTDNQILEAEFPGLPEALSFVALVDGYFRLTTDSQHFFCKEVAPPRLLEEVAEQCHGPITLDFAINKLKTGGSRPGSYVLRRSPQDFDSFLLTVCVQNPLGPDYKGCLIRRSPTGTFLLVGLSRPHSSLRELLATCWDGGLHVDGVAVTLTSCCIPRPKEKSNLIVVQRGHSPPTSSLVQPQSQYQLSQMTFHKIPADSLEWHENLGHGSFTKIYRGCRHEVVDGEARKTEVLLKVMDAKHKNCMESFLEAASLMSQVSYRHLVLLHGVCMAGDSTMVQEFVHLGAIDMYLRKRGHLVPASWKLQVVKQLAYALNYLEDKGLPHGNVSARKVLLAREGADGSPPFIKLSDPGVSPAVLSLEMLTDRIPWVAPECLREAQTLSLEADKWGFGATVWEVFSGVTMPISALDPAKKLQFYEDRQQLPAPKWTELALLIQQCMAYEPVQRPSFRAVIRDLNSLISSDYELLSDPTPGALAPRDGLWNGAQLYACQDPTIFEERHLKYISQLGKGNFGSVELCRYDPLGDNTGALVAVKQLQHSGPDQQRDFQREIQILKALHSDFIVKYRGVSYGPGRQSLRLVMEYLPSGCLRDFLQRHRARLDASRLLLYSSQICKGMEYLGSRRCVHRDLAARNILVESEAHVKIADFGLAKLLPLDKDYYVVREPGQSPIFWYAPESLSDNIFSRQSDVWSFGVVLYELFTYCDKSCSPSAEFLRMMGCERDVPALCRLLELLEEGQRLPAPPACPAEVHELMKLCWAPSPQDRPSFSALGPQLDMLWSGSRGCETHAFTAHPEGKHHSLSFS
T1 sequence (P00533 25-1210): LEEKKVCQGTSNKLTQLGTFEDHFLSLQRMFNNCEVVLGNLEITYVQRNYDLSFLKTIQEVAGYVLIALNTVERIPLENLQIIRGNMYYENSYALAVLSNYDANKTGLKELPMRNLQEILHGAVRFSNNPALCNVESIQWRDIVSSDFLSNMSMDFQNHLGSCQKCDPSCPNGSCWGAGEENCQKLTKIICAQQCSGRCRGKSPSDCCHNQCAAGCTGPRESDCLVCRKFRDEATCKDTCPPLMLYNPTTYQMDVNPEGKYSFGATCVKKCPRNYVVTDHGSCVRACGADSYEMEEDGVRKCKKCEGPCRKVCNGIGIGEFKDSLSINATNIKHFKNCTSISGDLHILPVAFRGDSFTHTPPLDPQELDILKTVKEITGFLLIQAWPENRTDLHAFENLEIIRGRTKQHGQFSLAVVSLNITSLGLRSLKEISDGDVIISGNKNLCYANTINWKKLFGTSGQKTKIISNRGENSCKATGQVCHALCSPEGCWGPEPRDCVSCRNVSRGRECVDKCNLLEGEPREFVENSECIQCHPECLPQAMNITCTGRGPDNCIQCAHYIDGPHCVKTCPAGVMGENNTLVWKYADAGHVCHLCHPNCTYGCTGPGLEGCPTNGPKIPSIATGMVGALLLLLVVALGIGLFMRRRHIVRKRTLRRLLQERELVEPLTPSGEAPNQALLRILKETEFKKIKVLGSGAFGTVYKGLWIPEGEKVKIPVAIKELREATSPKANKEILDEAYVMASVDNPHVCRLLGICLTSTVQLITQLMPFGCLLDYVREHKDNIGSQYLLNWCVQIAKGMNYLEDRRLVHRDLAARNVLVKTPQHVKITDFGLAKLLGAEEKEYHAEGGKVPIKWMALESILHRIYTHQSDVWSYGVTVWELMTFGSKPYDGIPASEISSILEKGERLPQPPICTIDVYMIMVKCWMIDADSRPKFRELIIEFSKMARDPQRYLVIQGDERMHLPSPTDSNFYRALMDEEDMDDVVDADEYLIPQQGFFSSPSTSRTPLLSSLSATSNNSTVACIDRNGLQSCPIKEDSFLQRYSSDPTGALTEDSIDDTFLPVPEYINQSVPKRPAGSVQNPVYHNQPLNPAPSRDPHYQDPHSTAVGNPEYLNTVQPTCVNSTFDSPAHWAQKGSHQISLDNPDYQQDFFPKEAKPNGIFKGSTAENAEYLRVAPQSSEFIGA
Sequence of BTK (Q06187 whole entry): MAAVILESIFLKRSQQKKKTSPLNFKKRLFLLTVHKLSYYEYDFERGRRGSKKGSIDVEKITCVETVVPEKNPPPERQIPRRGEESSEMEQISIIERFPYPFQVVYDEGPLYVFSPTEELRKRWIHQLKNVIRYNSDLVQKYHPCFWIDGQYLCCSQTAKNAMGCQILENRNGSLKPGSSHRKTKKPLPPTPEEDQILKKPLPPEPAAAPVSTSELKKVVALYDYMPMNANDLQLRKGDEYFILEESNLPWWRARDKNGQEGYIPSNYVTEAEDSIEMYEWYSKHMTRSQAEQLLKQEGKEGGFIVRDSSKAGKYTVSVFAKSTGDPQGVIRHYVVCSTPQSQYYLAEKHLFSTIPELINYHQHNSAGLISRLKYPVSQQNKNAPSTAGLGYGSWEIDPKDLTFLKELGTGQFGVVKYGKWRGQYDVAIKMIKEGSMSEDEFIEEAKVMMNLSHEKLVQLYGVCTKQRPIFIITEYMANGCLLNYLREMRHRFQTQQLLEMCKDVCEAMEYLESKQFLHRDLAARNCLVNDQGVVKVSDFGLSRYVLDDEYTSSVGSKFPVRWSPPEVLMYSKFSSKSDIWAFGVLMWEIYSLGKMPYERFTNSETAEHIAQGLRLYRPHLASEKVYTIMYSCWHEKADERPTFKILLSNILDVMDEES

Consider `CC#CC(=O)N1CC[C@@H](n2cc(-c3ccc(Oc4c(F)cccc4F)cc3)c3c(N)n[nH]c(=O)c32)C1` [TG-1701], for which the IC50 (in general, the midpoint of a concentration-inhibition curve) at EGFR was 0.27 µM; on JAK3, > 3 µM; at TEC it was 0.004 µM; at BTK, 0.003 µM; at TXK, 0.136 µM; at ITK it was > 3 µM. Besides, in the data set on Her2, the IC50 was > 3 µM.
